Assay results published in patent US4684622A, “Compositions and methods for producing vasodilation and antioxytocic activity” (SmithKline Beckman Corporation, priority 1986, dated 1987).
Numbered stars: 1 amine (or outer) side, 2 acyl side, 3 side chain; on linkers, the order of the positions; unused ones are H or OH. Bridge positions count the residues as written; N and C are the ends. Square brackets hold non-standard residues; d marks the D form. Peptide text beside a SMILES is read from it. X2 = O=C(CC1(S[*:2])CCCCC1)[*:1]; X1 = CC(C)(CC(=O)[*:1])S[*:2]; Mpa = O=C(O)CCS

Columns and labels:
V2-vasopressin receptors [1] = biological target: T1, V2-vasopressin receptors (Sus scrofa, UniProt P32307); experiment: inhibition of 3H-LVP binding, medullary pig kidney tissue
T1 construct: Medullary pig kidney tissue; from tissue; host or cells: pig (hog) kidney medulla
Procedure: (§1) Antagonistic activity of the V1 -vasopressin receptors is determined in a protocol which measures the reversal of the vasopressin-induced contraction of rat thoracic aorta tissue. This is expressed as KB (nM) in the table below. Such anti-pressor activity is confirmed in a similar in vitro protocol using the plasma membranes of rat liver. V2 -vasopressin antagonism is determined as receptor binding ability measured by inhibition of 3H-LVP binding (KB as nM), by inhibition of adenylate cyclase activation by vasopressin in the medullary tissue of hog kidneys (Ki as nM) or in vivo in the hydropenic rat protocol (ED300 μg/kg). These procedures are described in the literature: F. Stassen et al., J. Pharmacology and Experimental Therapeutics, 223 50 (1982); F. Stassen et al., 1st International Conference on Diuretics, Miami, Fla., March (1984). Antagonistic activity at oxytocin receptors is determined in the isolated rat uterus protocol: W. Sawyer, et al., Endocrinology 106 81 (1979); P. Melin, et al., J. of Endocrinology 88 173 (1981).
(§2) ^a Medullary pig kidney tissue, […]

V1-vasopressin receptors [2] = biological target: T2, V1-vasopressin receptors (Rattus norvegicus, UniProt P30560); experiment: in vitro protocol using plasma membranes of rat liver; format: binding; details: rat liver membrane
T2 construct: Rat aortic ring tissue; from tissue; host or cells: rat thoracic aorta rings
Procedure: as §1

oxytocin receptors = biological target: T3, oxytocin receptors (Rattus norvegicus, UniProt P70536); experiment: isolated rat uterus protocol; format: cell-based; details: read-out: Rat OXT KB
T3 construct: Rat uterus; from tissue; host or cells: isolated rat uterus
T3 sequence (P70536 1-388): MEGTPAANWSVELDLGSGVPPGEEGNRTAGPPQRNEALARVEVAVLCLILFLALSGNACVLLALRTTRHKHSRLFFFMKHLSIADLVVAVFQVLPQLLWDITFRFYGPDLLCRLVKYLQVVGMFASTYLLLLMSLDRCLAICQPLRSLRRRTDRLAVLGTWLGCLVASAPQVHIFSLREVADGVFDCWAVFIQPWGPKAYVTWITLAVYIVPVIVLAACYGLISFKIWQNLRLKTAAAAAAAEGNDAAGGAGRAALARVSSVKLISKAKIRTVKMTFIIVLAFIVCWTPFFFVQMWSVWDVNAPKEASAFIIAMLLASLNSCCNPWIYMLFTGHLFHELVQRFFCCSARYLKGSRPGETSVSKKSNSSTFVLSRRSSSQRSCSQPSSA
Procedure: as §1

V1-vasopressin receptors [3] = biological target: T2, V1-vasopressin receptors; experiment: reversal of vasopressin-induced contraction of rat thoracic aorta tissue; format: cell-based; details: rat aortic ring tissue
Procedure: as §1
^c Rat aortic ring tissue, […]

V2-vasopressin receptors [4] = biological target: T4, V2-vasopressin receptors (Rattus norvegicus, UniProt Q00788); experiment: hydropenic rat protocol in vivo
T4 construct: Hydropenic rat; from tissue; host or cells: whole animal (hydropenic rat)
Procedure: as §1

V2-vasopressin receptors [5] = biological target: T1, V2-vasopressin receptors; experiment: inhibition of adenylate cyclase activation by vasopressin, medullary pig kidney tissue; format: biochemical
Procedure: as §1, §2

T2 sequence (P30560 whole entry): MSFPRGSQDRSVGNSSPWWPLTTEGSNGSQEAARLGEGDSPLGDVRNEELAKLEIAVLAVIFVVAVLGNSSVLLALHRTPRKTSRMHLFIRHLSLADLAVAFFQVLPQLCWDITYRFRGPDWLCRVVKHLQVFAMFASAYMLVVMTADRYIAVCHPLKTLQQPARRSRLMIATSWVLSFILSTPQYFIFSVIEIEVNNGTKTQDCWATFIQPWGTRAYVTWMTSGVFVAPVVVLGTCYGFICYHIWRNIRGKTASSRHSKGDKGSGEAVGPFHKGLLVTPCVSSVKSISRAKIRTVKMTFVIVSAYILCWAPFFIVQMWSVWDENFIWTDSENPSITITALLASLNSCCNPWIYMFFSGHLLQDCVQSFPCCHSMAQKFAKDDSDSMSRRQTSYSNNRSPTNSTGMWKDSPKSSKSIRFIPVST
T1 sequence (P32307 whole entry): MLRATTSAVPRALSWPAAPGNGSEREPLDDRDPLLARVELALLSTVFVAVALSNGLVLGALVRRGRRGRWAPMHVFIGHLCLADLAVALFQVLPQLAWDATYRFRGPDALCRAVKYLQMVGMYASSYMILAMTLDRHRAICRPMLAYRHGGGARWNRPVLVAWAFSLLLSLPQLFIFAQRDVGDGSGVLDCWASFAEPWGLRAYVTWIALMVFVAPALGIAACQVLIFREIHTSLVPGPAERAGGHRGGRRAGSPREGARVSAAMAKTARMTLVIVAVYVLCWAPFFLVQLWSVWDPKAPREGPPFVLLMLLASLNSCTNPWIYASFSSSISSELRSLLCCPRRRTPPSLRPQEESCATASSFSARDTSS
T4 sequence (Q00788 whole entry): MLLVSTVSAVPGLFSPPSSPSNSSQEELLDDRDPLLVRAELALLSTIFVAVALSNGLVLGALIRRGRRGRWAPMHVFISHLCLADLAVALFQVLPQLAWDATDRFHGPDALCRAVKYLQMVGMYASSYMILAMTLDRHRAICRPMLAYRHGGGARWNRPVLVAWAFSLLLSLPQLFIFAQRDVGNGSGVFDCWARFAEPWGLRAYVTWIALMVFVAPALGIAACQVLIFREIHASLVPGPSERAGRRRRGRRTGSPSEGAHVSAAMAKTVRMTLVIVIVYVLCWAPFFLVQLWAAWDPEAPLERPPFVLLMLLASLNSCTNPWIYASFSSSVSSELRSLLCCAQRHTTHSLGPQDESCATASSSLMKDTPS

Row | Compound | Kb (V2-vasopressin receptors [1]) [nM] | Kb (oxytocin receptors) [nM] | Kb (V1-vasopressin receptors [3]) [nM] | Rat V2 ED300 (V2-vasopressin receptors [4]) [mg/kg] | Kb (V1-vasopressin receptors [3]; estimated, compound noncompetitive) [nM] | Kb (V1-vasopressin receptors [2]) [nM] | Pig V2 Ki (V2-vasopressin receptors [5]) | Ki (V2-vasopressin receptors [5]) [nM]
1 | COc1ccc(C[C@@H]2NC(=O)CC(C)(C)SSC[C@@H](C(=O)N[C@@H](CCCNC(=N)N)C(=O)NCC(N)=O)NC(=O)[C@H](CC(N)=O)NC(=O)[C@H](CCC(N)=O)NC(=O)[C@H](Cc3ccccc3)NC2=O)cc1 [B] (Y(Me)FQNCRG-NH2; linker N-5 via X1) | 3300 | 18.9 | 1.48 | > 5.977 | – | 37 | – | –
2 | CCOc1ccc(C[C@H]2NC(=O)CCSSC[C@@H](C(=O)N[C@@H](CCCNC(=N)N)C(N)=O)NC(=O)[C@H](CC(N)=O)NC(=O)[C@H]([C@@H](C)O)NC(=O)[C@H]([C@@H](C)CC)NC2=O)cc1 [D] ([Mpa][dY](Et)ITNCR-NH2; disulfide 1-6) | 1600 | 11.4 | – | – | – | – | – | –
3 | CCOc1ccc(C[C@H]2NC(=O)CCSSC[C@@H](C(=O)N[C@@H](CCCNC(=N)N)C(=O)NCC(N)=O)NC(=O)[C@H](CC(N)=O)NC(=O)[C@H]([C@@H](C)O)NC(=O)[C@H]([C@@H](C)CC)NC2=O)cc1 [E] ([Mpa][dY](Et)ITNCRG-NH2; disulfide 1-6) | 4100 | 17.7 | – | – | – | – | – | –
4 | COc1ccc(C[C@@H]2NC(=O)CC(C)(C)SSC[C@@H](C(=O)N3CCC[C@H]3C(=O)N[C@@H](CCCNC(=N)N)C(=O)NCC(N)=O)NC(=O)[C@H](CC(N)=O)NC(=O)[C@H](CCC(N)=O)NC(=O)[C@H](Cc3ccccc3)NC2=O)cc1 [F] (Y(Me)FQNCPRG-NH2; linker N-5 via X1) | 70 | – | – | – | – | 2.9 | agonist | –
5 | COc1ccc(C[C@@H]2NC(=O)CC3(CCCCC3)SSC[C@@H](C(=O)N3CCC[C@H]3C(=O)N[C@@H](CCCN=C(N)N)C(=O)NCC(N)=O)NC(=O)[C@H](CC(N)=O)NC(=O)[C@H](CCC(N)=O)NC(=O)[C@H](Cc3ccccc3)NC2=O)cc1 [G] (Y(Me)FQNCPRG-NH2; linker N-5 via X2) | 369 | – | 0.026 | – | – | 0.48 | – | 210

Continued, in another order:

Row | Kb (V2-vasopressin receptors [1]) [nM] | Kb (oxytocin receptors) [nM] | Kb (V1-vasopressin receptors [3]) [nM] | Rat V2 ED300 (V2-vasopressin receptors [4]) [mg/kg] | Kb (V1-vasopressin receptors [3]; estimated, compound noncompetitive) [nM] | Compound | Kb (V1-vasopressin receptors [2]) [nM] | Pig V2 Ki (V2-vasopressin receptors [5]) | Ki (V2-vasopressin receptors [5]) [nM]
6 | 3000 | 32.6 | 5.69 | > 5.959 | – | COc1ccc(C[C@@H]2NC(=O)CC(C)(C)SSC[C@@H](C(=O)N[C@@H](CCCNC(=N)N)C(N)=O)NC(=O)[C@H](CC(N)=O)NC(=O)[C@H](CCC(N)=O)NC(=O)[C@H](Cc3ccccc3)NC2=O)cc1 [A] (Y(Me)FQNCR-NH2; linker N-5 via X1) | 38 | – | –
7 | 350 | 1.88 | – | – | 0.0072 | CCOc1ccc(C[C@H]2NC(=O)CC(C)(C)SSC[C@@H](C(=O)N[C@@H](CCCNC(=N)N)C(N)=O)NC(=O)[C@H](CC(N)=O)NC(=O)[C@H](CCC(N)=O)NC(=O)[C@H](Cc3ccccc3)NC2=O)cc1 [C] ([dY](Et)FQNCR-NH2; linker N-5 via X1) | – | – | –
